Molecules are shown by their SMILES. A value given as a limit tells only on which side of the number the result lay.

The target in test [1] is T1, ACAT1 C196 (Homo sapiens, UniProt P24752).
T1 construct: IsoTOP-ABPP analysis of DKM 2-90 treatment in 231MFP cells in situ; endogenous in cells; host or cells: 231MFP cells
T1 sequence (P24752 34-427): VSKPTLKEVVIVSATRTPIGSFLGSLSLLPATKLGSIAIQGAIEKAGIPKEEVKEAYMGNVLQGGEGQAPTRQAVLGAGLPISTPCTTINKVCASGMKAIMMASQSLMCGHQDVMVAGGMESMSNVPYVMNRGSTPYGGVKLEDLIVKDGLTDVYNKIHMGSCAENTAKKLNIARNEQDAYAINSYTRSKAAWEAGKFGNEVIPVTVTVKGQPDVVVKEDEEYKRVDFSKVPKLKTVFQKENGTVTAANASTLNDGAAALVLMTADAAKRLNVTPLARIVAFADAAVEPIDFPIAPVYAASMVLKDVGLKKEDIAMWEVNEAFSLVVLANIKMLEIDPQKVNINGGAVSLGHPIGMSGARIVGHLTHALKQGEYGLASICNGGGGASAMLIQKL
Briefly: isoTOP-ABPP after in situ treatment of 231MFP cells. The note with it: 100 μM, 4 h in 231MFP cells in situ. It counts as binding. The protocol: (§1) IsoTOP-ABPP studies were performed using the methods described in “Nature 534(7608), 570-574 (2016)” by Backus K. M., et al. and “Nature 468(7325), 790-795 (2010)” by Weerapana E., et al. […] Then, IAyne (iodoacetamide-alkyne) labeling was performed for 1 hour at room temperature. CuAAC was used by sequential addition of tris(2-carboxyethyl)phosphine (1 mM), tris[(1-benzyl-1H-1,2,3-triazol-4-yl)methyl]amine (34 μM), copper (II) sulfate (1 mM), and biotin-linker-azide where the linker was functionalized with a TEV protease recognition sequence along with an isotopically light or heavy valine for treatment of control or treated proteome, respectively. After click reactions, proteomes were precipitated by centrifugation at 6500×g, washed in ice-cold methanol, combined in a 1:1 control/treated ratio, washed again, then denatured and re-solubilized by heating in 1.2% SDS/PBS to 80° C. for 5 minutes. Insoluble components were precipitated by centrifugation at 6500×g and soluble proteome was diluted in 0.2% SDS/PBS (5 ml). Labeled proteins were bound to avidin-agarose beads (170 μl re-suspended beads/sample) while rotating overnight at 4° C. Bead-linked proteins were enriched by washing three times each in PBS and water, then re-suspended in urea/PBS (6 M), reduced in TCEP (1 mM), alkylated with iodoacetamide (18 mM), then washed and re-suspended in urea/PBS (2 M), and finally trypsinized overnight with 0.5 μg/μl sequencing grade trypsin. Tryptic peptides were eluted off. Beads were washed in PBS (3 times) and water (3 times), washed in TEV buffer solution (water, TEV buffer, 100 μM dithiothreitol), and re-suspended in buffer with Ac-TEV protease and then incubated overnight. Peptides were diluted in water, acidified with formic acid (1.2 M), and prepared for analysis.
(§2) Peptides from all proteomic experiments were pressure-loaded onto an Agilent 600 series RP-HPLC system equipped with a capillary tubing (250 mm) packed with Aqua C18 reverse-phase resin (4 cm). The system was previously equilibrated with a gradient (0% B to 100% B over 10 minutes, 100% B for 5 minutes, then 0% B for 5 minutes; buffer A: 95:5 water:acetonitrile, 0.1% formic acid; buffer B: 80:20 acetonitrile:water, 0.1% formic acid). The samples were then attached using a MicroTee PEEK 360 μm fitting to a laser pulled column (13 cm) packed with Aqua C18 reverse-phase resin (10 cm) and strong-cation exchange resin (3 cm) for isoTOP-ABPP studies. Samples were analyzed using an Q Exactive Plus mass spectrometer using a 5-step Multidimensional Protein Identification Technology (MudPIT) program. The system was run using a gradient (5% B to 55% B; buffer A: 95:5 water:acetonitrile, 0.1% formic acid; buffer B: 80:20 acetonitrile:water, 0.1% formic acid), along with a salt bump feeding aqueous ammonium acetate (500 mM) at an increment of 0%, 25%, 50%, 80%, to 100%. Data was collected in data-dependent acquisition mode with dynamic exclusion enabled (60 sec). One full MS scan (400-1800 m/z) (MS1 scan) was conducted, followed by MS2 scan (ITMS) (15 times) of the most abundant ions. Heated capillary temperature was set to 200° C. and the nanospray voltage was set to 2.75 kV.
(§3) Data was extracted in the form of MS1 and MS2 files using Raw Extractor 1.9.9.2 and searched against the Uniprot […] database using ProLuCID search methodology in IP2 v.3, described in “J Proteomics 129:16-24 (2015)” by Xu T, et al. Cysteine residues were searched with a static modification for carboxyaminomethylation (+m/z 57.02146), up to two differential modifications for methionine oxidation, and either the light or heavy TEV tags (+m/z 464.28596 or +m/z 470.29977, respectively). Peptides were required to have at least one tryptic end and to contain the TEV modification. ProLUCID data was filtered through DTASelect to achieve a peptide false-positive rate below 1%. […]

Test [2] concerns the target T2, SCP2 C307 (Homo sapiens, UniProt P22307).
T2 construct: IsoTOP-ABPP analysis of DKM 2-90 treatment in 231MFP cells in situ; endogenous in cells; host or cells: 231MFP cells
T2 sequence (P22307 1-547): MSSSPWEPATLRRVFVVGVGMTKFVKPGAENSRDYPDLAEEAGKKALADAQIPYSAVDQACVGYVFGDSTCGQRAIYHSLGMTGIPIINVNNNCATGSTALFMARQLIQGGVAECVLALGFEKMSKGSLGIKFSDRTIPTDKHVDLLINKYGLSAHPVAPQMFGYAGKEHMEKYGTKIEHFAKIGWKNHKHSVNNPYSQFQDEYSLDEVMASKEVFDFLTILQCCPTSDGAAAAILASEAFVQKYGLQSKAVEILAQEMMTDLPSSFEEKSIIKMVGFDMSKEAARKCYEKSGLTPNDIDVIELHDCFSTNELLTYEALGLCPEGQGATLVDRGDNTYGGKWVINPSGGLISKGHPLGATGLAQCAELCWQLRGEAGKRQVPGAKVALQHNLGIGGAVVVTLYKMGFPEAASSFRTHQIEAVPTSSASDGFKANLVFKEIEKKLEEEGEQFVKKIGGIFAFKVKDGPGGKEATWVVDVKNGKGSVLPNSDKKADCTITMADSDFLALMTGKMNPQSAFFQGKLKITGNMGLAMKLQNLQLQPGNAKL
The test is described as above. It counts as binding. As to conditions: 100 μM, 4 h in 231MFP cells in situ. The protocol:
as §1, §2, §3

Regarding `O=C(CCl)Nc1ccc2c(c1)OCCO2` [DKM 2-90, 2-Chloro-N-(2,3-dihydrobenzo[β][1,4]dioxin-6-yl)acetamide], in test [1], the “isotopically light to heavy ratio, ACAT1 C196” value is above 5. In addition, in test [2], the “isotopically light to heavy ratio, SCP2 C307” value is above 5.
